Laboratory results as given in patent US11542264B2, “Heteroaromatic NMDA receptor modulators and uses thereof” (Cadent Therapeutics, Inc., priority 2018, dated 2023).
In brackets after ≈: the same amount, converted by molar mass. Entries after “also recorded” stand apart in the source; their conditions may differ.

How the values were obtained:
[1] = Human liver microsome stability; assay type: in vitro ADME
Source text: (§1) The liver is the most important site of drug metabolism in the body. Approximately 60% of marketed compounds are cleared by hepatic CYP-mediated metabolism (McGinnity, D. F.; Soars, M. G.; Urbanowicz, R. A. and Riley, R. J.; Drug Metab. Disp. 32, 1247, (2004)). Liver microsomes are subcellular fractions which contain membrane bound drug metabolizing enzymes. Microsomes can be used to determine the in vitro intrinsic clearance of a compound. The use of species-specific microsomes can be used to enable an understanding of interspecies differences.

[2] = Aqueous solubility, shake-flask method; assay type: physicochemical; conditions: phosphate buffer saline, pH 7.4, aqueous buffer, kinetic from dmso stock, pH 7.4, shake-flask, HPLC-UV
Description: The aqueous solubility of the test compound was determined in phosphate buffer saline, pH 7.4, measured by shake-flask method. In this assay, DMSO stock solution of test compound was added to buffer followed by equilibration (shaking), filtration, and determination of soluble amount by HPLC-UV. […] Other imidazopyrazinone comparators from WO 2017/100591 are provided for reference. All comparator analogs are active and potency data is available in WO 2017/100591. This improvement is advantageous because improved aqueous solubility, in one aspect, is anticipated to provide enhanced in vivo performance in humans.

[3] = target: T1, hNR2B (Homo sapiens, UniProt Q13224); assay: Oocyte 2EVC NR2B PAM activity; assay type: cell-based
T1 construct: expressed in transfected cells
T1 sequence (Q13224 27-1484, other chains not shown): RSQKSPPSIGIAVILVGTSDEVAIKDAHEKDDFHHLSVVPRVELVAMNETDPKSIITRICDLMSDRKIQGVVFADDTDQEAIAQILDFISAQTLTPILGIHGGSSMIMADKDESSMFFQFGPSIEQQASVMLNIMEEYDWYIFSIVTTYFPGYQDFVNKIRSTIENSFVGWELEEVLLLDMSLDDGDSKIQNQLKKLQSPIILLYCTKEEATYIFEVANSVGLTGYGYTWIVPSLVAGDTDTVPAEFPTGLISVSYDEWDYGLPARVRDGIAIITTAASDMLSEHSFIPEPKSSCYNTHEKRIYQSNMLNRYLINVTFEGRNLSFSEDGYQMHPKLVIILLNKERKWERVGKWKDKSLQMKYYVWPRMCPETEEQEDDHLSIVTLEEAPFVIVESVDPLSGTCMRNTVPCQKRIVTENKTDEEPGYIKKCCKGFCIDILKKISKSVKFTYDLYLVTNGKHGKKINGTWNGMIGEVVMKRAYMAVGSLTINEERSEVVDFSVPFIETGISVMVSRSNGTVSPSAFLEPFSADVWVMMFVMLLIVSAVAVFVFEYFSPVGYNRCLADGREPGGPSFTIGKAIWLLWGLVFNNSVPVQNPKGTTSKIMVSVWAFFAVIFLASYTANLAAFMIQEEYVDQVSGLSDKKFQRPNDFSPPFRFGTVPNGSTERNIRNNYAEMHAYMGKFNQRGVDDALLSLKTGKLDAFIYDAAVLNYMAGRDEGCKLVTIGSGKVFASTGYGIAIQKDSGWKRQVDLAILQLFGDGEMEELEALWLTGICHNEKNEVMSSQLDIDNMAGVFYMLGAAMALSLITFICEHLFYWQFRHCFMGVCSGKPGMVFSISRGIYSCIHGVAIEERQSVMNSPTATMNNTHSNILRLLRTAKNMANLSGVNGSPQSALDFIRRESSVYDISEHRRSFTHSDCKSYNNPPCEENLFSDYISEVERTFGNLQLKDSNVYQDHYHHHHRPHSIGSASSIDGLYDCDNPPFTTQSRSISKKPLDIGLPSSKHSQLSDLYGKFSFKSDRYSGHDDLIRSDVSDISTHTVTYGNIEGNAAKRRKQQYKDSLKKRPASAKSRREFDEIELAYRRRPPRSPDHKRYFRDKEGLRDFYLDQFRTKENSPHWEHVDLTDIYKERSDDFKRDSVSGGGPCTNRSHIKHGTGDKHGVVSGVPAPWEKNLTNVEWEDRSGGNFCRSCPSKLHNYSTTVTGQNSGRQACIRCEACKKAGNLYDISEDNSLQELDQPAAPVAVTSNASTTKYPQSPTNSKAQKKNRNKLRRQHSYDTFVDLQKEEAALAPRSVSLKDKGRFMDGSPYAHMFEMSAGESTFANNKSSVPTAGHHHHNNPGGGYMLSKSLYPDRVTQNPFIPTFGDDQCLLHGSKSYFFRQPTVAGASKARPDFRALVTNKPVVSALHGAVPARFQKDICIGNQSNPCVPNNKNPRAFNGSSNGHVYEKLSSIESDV
Source text: (§2) EC50 refers to the concentration of a compound that gives half-maximal response.

[4] = target: T2, hNR2B (Homo sapiens, UniProt Q05586+Q13224); assay: Oocyte 2EVC NR2B PAM activity; assay type: cell-based; conditions: oocytes expressing hNR2B, 5 μM glutamate and 3 μM glycine; read-out: Oocyte 2EVC NR2B PAM: Avg EC50
T2 construct: expressed in transfected cells
Source text: as §2

[5] = Rat liver microsome stability; assay type: in vitro ADME
Source text: as §1

[6] = tested on: PCP-induced cognitive impairment; assay: Rat Novel Object Recognition (NOR) test, PCP-induced cognitive impairment; conditions: oral
Description: Rats were treated twice daily for 7 days with either saline vehicle (control group) or PCP (5 mg/kg, intraperitoneal). Following a 14-day washout period of no treatment, rats were tested in the NOR paradigm. Briefly, testing involves two sessions (T1 and T2), each lasting 3 minutes, 1 hour apart. […] In T1, rats are placed in a test arena with two identical objects and allowed to freely explore while their time spent exploring each object is recorded. In T2, rats are returned to the test arena where one of the objects remains the same and the other has been replaced with a novel object. The time spent exploring the novel object versus the time spent exploring the familiar object are recorded and compared to T1 object exploration times.

[7] = tested on: impairment of MMN by MK-801; assay: Mismatch negativity (MMN) efficacy model; conditions: rat, 60 mg/kg BID, MK-801 0.2 mg/kg IP
Description: Rats implanted with frontal EEG electrodes were presented with different audio stimuli comprising an auditory oddball “flip-flop” protocol. Briefly, 1,000 standard tones of 6.0 kHz were delivered at 90% probability, and 100 deviant tones of 8.0 kHz were delivered at 10% probability in pseudo-random order (the flip sequence), and then this sequence was then repeated with the 8 kHz tone as the standard, and the 6 kHz tone as the deviant (the flop sequence). MMN is calculated as a difference potential obtained by subtracting the averaged 8 kHz standard tone response (flop) from the averaged 8 kHz deviance tone response (flip) at each 1 ms time point over the EEG recording epochs from 50 ms prior to 150 ms after the onset of these 50 ms auditory tones.
Test sessions were comprised of three 20-minute flip-flop blocks.

[8] = tested on: MDR1-transfected MDCK cells; assay: MDCK permeability and efflux assay; assay type: in vitro ADME
Source text: (§3) Monolayer systems consist of a tight cell layer grown on a porous support to separate two fluid compartments. They are widely regarded as the most sophisticated in vitro tools for medium to high throughput modeling of important pharmacokinetic barriers, such as intestinal epithelium, blood-brain barrier, etc. (J. Pharm Sci. 2012 April; 101(4): 1337-1354). Two systems that are applied widely in monolayer studies are the human colon carcinoma cell line Caco-2 and MDR1-transfected MDCKII and LLC-PK1 cells. In monolayer assays, the flux of a compound through the monolayer of cells is measured. The unidirectional flux of the compound of interest is determined by applying it to either the apical or to the basolateral side of the cell layer and monitoring the time resolved redistribution of it between the two compartments. The vectorial transport ratio (often referred to as Efflux Ratio) is determined by applying bidirectional measurements [apical-to-basolateral (A-B) and basolateral-to-apical (B-A)]. […] In the absence of such transport processes this ratio is approximately 1.

[9] = tested on: MDR1; assay: MDCK permeability and efflux assay; assay type: in vitro ADME; conditions: dog, MDR1-transfected MDCK cells
Source text: as §3

[10] = Rat IV pharmacokinetic study, in vivo clearance
Source text: Rat microsomal stability data is provided as well. These improvements in in vitro and in vivo clearance are advantageous because reduced clearance, in one aspect, is anticipated to provide enhanced in vivo performance in humans.

[11] = target: T3, hNR2D (Homo sapiens, UniProt O15399+Q05586); assay: Oocyte 2EVC NR2D PAM activity; assay type: cell-based; conditions: oocytes expressing hNR2D, 10 μM glutamate and 10 μM glycine
T3 construct: expressed in transfected cells
T3 sequence (O15399 28-1336, other chains not shown): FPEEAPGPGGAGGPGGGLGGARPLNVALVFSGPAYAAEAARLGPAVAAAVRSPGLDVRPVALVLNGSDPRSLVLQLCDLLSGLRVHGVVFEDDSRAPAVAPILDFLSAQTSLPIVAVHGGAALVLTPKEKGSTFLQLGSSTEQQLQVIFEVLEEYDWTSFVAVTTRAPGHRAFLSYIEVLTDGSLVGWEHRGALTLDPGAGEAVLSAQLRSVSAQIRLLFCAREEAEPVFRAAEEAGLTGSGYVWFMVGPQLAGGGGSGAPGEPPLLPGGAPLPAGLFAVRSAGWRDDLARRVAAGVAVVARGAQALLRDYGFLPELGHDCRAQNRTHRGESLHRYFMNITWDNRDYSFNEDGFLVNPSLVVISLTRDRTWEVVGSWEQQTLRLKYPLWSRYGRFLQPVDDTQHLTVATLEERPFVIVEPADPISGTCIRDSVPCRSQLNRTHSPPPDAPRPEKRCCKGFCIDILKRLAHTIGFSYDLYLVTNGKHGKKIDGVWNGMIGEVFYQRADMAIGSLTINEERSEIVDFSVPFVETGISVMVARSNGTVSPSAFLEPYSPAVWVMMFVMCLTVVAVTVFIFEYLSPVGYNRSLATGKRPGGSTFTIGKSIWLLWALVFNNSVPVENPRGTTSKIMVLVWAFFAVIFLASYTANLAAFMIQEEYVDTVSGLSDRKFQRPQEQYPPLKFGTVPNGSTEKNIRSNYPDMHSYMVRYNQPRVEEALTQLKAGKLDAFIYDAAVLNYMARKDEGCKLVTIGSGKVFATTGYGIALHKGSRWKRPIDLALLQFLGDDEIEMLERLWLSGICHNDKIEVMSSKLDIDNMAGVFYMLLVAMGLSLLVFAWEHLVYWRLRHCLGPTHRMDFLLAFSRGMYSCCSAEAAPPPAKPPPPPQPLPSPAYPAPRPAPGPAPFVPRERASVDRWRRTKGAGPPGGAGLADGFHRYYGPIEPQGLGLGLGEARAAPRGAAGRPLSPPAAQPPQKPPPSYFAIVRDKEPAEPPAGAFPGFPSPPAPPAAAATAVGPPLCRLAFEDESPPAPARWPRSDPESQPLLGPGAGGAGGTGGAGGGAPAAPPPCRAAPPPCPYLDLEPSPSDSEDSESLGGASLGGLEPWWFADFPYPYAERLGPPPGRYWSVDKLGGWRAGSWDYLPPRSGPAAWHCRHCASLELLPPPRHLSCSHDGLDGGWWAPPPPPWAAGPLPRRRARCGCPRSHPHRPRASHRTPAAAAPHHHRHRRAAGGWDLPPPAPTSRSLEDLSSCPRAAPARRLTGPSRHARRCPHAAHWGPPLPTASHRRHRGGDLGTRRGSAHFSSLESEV
Source text: as §2

[12] = target: T4, hNR2D (Homo sapiens, UniProt O15399); assay: Oocyte 2EVC NR2D PAM activity; assay type: cell-based
T4 construct: expressed in transfected cells
T4 sequence (O15399 28-1336, other chains not shown): as above
Source text: as §2

[13] = target: T5, hNR2C (Homo sapiens, UniProt Q14957); assay: Oocyte 2EVC NR2C PAM activity; assay type: cell-based
T5 construct: expressed in transfected cells
T5 sequence (Q14957 20-1233, other chains not shown): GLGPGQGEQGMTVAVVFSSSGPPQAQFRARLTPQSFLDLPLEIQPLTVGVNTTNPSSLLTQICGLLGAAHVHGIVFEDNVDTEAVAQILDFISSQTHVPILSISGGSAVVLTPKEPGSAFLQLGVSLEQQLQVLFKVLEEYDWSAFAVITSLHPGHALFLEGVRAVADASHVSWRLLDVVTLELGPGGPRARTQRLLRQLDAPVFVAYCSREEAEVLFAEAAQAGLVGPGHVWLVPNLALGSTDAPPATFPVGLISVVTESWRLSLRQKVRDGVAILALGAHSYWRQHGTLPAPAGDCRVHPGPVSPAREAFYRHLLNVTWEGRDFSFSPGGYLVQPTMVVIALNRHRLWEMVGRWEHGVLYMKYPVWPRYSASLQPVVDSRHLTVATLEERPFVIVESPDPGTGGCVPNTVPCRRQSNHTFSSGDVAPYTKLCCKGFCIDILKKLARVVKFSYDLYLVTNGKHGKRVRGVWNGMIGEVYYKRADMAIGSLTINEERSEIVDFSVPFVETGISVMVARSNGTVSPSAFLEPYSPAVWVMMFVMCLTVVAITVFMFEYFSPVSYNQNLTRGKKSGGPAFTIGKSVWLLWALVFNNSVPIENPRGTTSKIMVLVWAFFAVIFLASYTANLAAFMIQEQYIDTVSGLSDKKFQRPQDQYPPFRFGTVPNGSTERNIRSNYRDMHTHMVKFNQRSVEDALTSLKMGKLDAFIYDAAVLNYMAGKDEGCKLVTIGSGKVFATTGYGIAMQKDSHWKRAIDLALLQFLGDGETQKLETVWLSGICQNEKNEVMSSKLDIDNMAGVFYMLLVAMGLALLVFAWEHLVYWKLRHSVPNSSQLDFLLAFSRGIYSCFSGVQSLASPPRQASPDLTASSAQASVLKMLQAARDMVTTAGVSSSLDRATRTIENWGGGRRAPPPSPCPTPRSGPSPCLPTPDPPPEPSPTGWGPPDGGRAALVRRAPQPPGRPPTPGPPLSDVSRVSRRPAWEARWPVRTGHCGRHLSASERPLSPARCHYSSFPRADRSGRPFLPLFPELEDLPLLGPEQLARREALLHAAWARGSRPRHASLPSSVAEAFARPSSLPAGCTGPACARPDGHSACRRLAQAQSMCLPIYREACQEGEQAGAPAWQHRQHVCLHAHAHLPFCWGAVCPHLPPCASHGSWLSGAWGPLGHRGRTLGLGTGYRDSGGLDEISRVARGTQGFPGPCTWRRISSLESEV
Source text: as §2

[14] = 100% potentiation = doubling of current induced by glutamate/glycine
[15] = 10 μM glutamate and 10 μM glycine

CC1(F)CN(C(=O)Cn2cnc3c(c(-c4ccc(F)c(Cl)c4)cn3C3CC3)c2=O)C1 [Compound 1, 5-(3-chloro-4-fluorophenyl)-7-cyclopropyl-3-(2-(3-fluoro-3-methylazetidin-1-yl)-2-oxoethyl)-3,7-dihydro-4H-pyrrolo[2,3-d]pyrimidin-4-one]
stability in Human Liver Microsomes (in words) [1]: good stability
HLM % Metabolized after 30 min ([1]; human liver microsomes, 30 min): 34.3%
microsomal CLint ([1]; human liver microsomes, read-out: HLM mCLint): 27.3 µL/min/mg
half-life ([1]; human liver microsomes, read-out: HLM t1/2): 0.847 h
solubility [2]: 29 µM (≈ 12.6 µg/mL)
Oocyte 2EVC NR2B PAM: Concentration Required for Current Doubling ([3]; 5 μM glutamate and 3 μM glycine): 160 nM
Oocyte 2EVC NR2B PAM: Avg Max % Potentiation [3, 14]: 478%
EC50 [4]: 446 nM
stability in Rat Liver Microsomes (in words) [5]: excellent stability
Rat liver microsome (RLM) stability t1/2 ([5]; Table 4): >2 h
RLM t1/2 ([5]; rat liver microsomes): >2 h
RLM % Metabolized after 30 min ([5]; rat liver microsomes, 30 min): 1.83%
microsomal CLint ([5]; rat liver microsomes, read-out: RLM mCLint): < 5 µL/min/mg
half-life ([5]; rat, liver microsomes, Table 4, read-out: Rat liver microsome (RLM) stability t1/2): > 2 h
reversal of PCP-induced deficit in novel object exploration time ([6]; 0.3 mg/kg): significantly reversed this deficit
reversal of PCP-induced deficit in novel object exploration time ([6]; 1.0 mg/kg): significantly reversed this deficit; also recorded: fully-reversed the PCP-induced deficit
MMN after Compound 1 plus MK-801 [7]: prevented impairment of MMN by MK-801
efflux in the MDCK efflux assay (in words) ([8]; MDCK): not subject to efflux
membrane penetration (in words) ([8]; MDCK): penetrates membranes well
A-B MDCK Permeability ([8]; apical-to-basolateral, MDR1-transfected MDCK cells): 32.3 10^−6 cm/sec
B-A MDCK Permeability ([8]; basolateral-to-apical, MDR1-transfected MDCK cells): 32.1 10^−6 cm/sec
Papp A→B ([9]; MDCK-MDR1, apical-to-basolateral): 32 ×10⁻⁶ cm/s
Papp B→A ([9]; MDCK-MDR1, basolateral-to-apical): 32 ×10⁻⁶ cm/s
clearance [10]: 7.4 mL/min/kg
EC50 [11]: 1890 nM
Oocyte 2EVC NR2D PAM: Concentration Required for Current Doubling [12, 15]: 165 nM
Oocyte 2EVC NR2D PAM: Avg Max % Potentiation [12, 14]: 1700%
Oocyte 2EVC NR2C PAM: Concentration Required for Current Doubling [13, 15]: 120 nM
Oocyte 2EVC NR2C PAM: Avg Max % Potentiation [13, 14]: 1800%
EC50 ([13]; oocytes expressing hNR2C, 10 μM glutamate and 10 μM glycine): 1200 nM
